Data on two molecules can be found in patent US20060182685A1, “Hollow fiber technique for in vivo study of cell populations” (priority 2004, published 2006).

Series [1] relates to hollow fiber-encapsulated M. tuberculosis H37Rv-lux.
The conditions of series [2]: cited from earlier work.
Series [3] can be described thus: Serum antibiotic concentrations in mice on medicated diet. Particulars: for Cmean: serum; for AUC: SKH1, mouse, in vivo.

Where two headings read alike, the source gives them in different places. Marks after values point to notes of the source that are not given here.

On to `CO[C@H]1/C=C/O[C@@]2(C)Oc3c(C)c(O)c4c(O)c(c(/C=N/N5CCN(C)CC5)c(O)c4c3C2=O)NC(=O)/C(C)=C\C=C\[C@H](C)[C@H](O)[C@@H](C)[C@@H](O)[C@@H](C)[C@H](OC(C)=O)[C@@H]1C` [Rifampin, rifampin], for which the “activity against bacilli in the hollow fiber model in vivo” value in series [1] is reported as “magnitude of its effect greater than that of isoniazid”. In addition, the “kill of hollow fiber-encapsulated bacilli” value in series [1] (in vivo) amounted to 3 log. The AUC is 117.93 mg·h/L in series [2] (human, in vivo, 10 mg/kg) and 74200 ± 9800 ng·h/mL in series [3] (0.05 % of diet). In addition, the Cmax in series [2] (human, in vivo, 10 mg/kg) is 14910 ng/mL. In series [3] (Rifampin, SKH1 mice (0.05% diet)), this molecule showed a Cmean of 3.09 ± 0.41 mg/L.
Consider `NNC(=O)c1ccncc1` [Isoniazid, isoniazid], for which the “activity against bacilli in the hollow fiber model in vivo” value in series [1] was “somewhat effective”. Moreover, the AUC was 19.9 ± 6.1^a mg h/L in series [2] (Isoniazid, Humans (5 mg/kg), rapid acetylators); 48.2 ± 1.5^b mg h/L in series [2] (human, in vivo, 5 mg/kg); 18500 ± 5000 ng·h/mL in series [3] (0.02 % of diet). In addition, in series [3] (Isoniazid, SKH1 mice (0.02% diet)), the Cmean is 0.77 ± 0.21 mg/L.

As a reminder, the AUC is the area under the concentration-time curve, a measure of exposure. Usually Cmax stands for the highest concentration seen after dosing.
